Test results reported in patent US12612424B2, “HPK1 inhibitors and uses thereof” (Regor Pharmaceuticals, Inc., priority 2019, dated 2026).

Legend:
[1] = test system: Human Pan T Cell (IL-2 release); assay: IL2 released by human pan T cell upon anti-CD3/anti-CD28 stimulation (ELISA); format: cell-based; conditions: human pan T cells; for maximal fold induction: 48 h, response of IL-2 over DMSO control, anti-CD3/anti-CD28, 48 hours, ELISA, read-out: IL-2 Max Fold Response
Source text: For example, Example 5 describes such a functional assay for determining the effect of an HPK1 inhibitor on IL-2 & IFN-γ release upon stimulation of Pan T cells. The secreted IL-2 & IFN-γ can be measured/quantified by standard ELISA assay. Briefly, pan T cells can be isolated from peripheral blood (PB) mononuclear cells (MNCs), or PBMC, using commercially available kits, such as MACS (Miltenyl Biotec) Pan T isolation kit (Cat. No. 130-096-535). Primary human pan-T cells include CD4 and CD8 T cells as well as some gamma/delta T cell subsets. The pan-T cells can be isolated using the negative immunomagnetic separation technique without the use of columns.
Isolated pan-T cells can be dispensed into 96-well plates at 100,000 cells/well, and stimulated with immobilized anti-CD3 antibody and soluable anti-CD28 antibody, or PMA/Ionomycin as the positive control (or culture media as the negative control). Different concentrations of test compounds can be added to the cells to assess the compound effect on cytokine secretion following TCR-stimulation/CD28 co-stimulation. Stimulated cells are incubated for 2 more days, before the supernatant (containing secreted cytokines by pan-T cells) is collected from each well for ELISA assay and quantitation of IL-2 and IFN-γ.
Biology Example 8 Compound Efficacy Study on IL2 & IFN-γ Released by Human Pan T Cell
This example is an assay method that can be used to determine compound effects on IL2 & IFN-γ release using pan T cells and ELISA assay format.
3. Procedures Procedures for Pan T isolation and Reagent preparation (Day 0): 1. Cell Growth Medium: • RPMI1640: ATCC, Cat #30-2001 • 10% FBS: Gibco, Cat #10099141 • 1% Pen-Strep: Gibco, Cat #15140122 • 1% Non-essential amino: Gibco, Cat #11140050 • Beta-Mercaptoethanol: Gibco, Cat #21985023 2. Pan T Isolation Buffer Preparation:
Prepare a solution containing phosphate-buffered saline (PBS), pH 7.2, 0.5% bovine serum albumin (BSA), and 2 mM EDTA by diluting MACS® BSA Stock Solution (#130-091-376) 20 times with autoMACS® Rinsing Solution. Keep buffer at 4° C. Degas buffer before use, as air bubbles could block the column.
3. Thawing of Frozen PBMC • 1) Pre-heat medium at 37° C. water bath. • 2) Rapidly thaw cells in 37° C. water bath. • 3) Add the pre-warmed medium into 15 mL tube. Transfer cells to the tube. • 4) 300×g centrifuge for 8 min. (centrifuge increase 0, decrease 0). • 5) Wash the PBMC using Rinsing buffer. • 6) Centrifuge PBMC at 300×g for 8 min, wash it twice (centrifuge increase 9, decrease 1). • 7) Resuspend the cells with Pan T cells isolation buffer and count cells number. 4. Pan T Cells Isolation: Cell Staining with Microbead Cocktail • 1) Prepare cells and determine cell number. Filter cells by 70 μm cell strainer. • 2) Resuspend cell pellet in 40 μL of buffer per 10^7 total cells. • 3) Add 10 μL of Pan T Cell Biotin-Antibody Cocktail per 10^7 total cells. • 4) Mix well and incubate for 10 minutes in the refrigerator (ice). • 5) Add 30 μL of buffer per 10^7 total cells. • 6) Add 20 μL of Pan T Cell MicroBead Cocktail per 10^7 total cells. • 7) Mix well and incubate for 15 minutes in the refrigerator (ice). • 8) Proceed to subsequent magnetic cell separation. • Note: a. Work fast, keep cells cold, and use pre-cooled solutions (2-8° C.). b. Volumes for magnetic labeling given are for up to 10′ total cells. When working with fewer cells, use the same volumes as indicated. c. When working with higher cell numbers, scale up all reagent volumes and total volumes accordingly. d. For optimal performance it is important to obtain a single-cell suspension before magnetic labeling. Subsequent Manual Cell Separation: • 1) Place LS Column in the magnetic field of a suitable MACS Separator. For details refer to the respective MACS Column data sheet. • 2) Prepare column by rinsing with 3 mL of buffer. • 3) Apply cell suspension onto the column. Collect flow-through, which represents the enriched T cells. • 4) Wash column with 5 mL of buffer. […]

[2] = target: HPK1 (Homo sapiens, UniProt Q92918); assay: HPK1 biochemical assay (ADP-GLO Kinase Assay); conditions: B*: testing performed in a first testing facility; read-out: HPK1 IC50 (nM) Relative, B*
HPK1, sequence (Q92918 whole entry): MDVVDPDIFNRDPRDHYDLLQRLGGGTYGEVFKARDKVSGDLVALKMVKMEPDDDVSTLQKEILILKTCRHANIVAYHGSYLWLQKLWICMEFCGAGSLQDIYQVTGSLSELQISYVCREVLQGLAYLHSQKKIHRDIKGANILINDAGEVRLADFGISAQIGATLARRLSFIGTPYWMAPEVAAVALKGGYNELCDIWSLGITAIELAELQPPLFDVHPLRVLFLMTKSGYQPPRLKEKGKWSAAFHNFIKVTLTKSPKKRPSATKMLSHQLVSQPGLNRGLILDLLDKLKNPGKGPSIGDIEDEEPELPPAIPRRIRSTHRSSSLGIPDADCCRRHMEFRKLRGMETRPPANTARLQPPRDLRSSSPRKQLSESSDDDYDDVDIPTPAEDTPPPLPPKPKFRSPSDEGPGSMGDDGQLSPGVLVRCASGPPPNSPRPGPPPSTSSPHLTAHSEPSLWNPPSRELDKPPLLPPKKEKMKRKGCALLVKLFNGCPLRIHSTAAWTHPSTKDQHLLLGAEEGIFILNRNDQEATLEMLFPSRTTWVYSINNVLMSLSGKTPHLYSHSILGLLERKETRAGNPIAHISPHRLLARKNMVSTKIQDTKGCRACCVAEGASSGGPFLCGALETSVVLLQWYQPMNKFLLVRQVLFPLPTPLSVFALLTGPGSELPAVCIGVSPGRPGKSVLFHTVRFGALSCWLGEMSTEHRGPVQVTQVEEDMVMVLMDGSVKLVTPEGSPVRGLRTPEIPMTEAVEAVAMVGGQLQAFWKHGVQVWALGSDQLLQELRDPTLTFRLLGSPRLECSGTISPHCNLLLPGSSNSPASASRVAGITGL
In short: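 HPK1 (0.6 ng/μL final) activity was followed with MBP substrate and 10 μM ATP in Tris pH 7.5/MgCl2/BSA/DTT buffer, measured by ADP-Glo luminescence. Compounds were tested as 3-fold dilutions from 10 μM. IC50 came from a three-parameter logistic fit, with inhibition normalised to high/low controls.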

[3] = target: T1, JAK3 (Homo sapiens, UniProt P52333); assay: JAK3 biochemical assay (ADP-GLO Kinase Assay); conditions: for IC50: B*: testing performed in a first testing facility, read-out: JAK3 IC50 (nM) Relative, B*; for JAKs/HPK1 IC50 Ratio, B*: ratio of JAK3 IC50 to HPK1 IC50, first testing facility
T1 construct: purchased Thermo fisher PV3855
T1 sequence (P52333 781-1124 limits assumed): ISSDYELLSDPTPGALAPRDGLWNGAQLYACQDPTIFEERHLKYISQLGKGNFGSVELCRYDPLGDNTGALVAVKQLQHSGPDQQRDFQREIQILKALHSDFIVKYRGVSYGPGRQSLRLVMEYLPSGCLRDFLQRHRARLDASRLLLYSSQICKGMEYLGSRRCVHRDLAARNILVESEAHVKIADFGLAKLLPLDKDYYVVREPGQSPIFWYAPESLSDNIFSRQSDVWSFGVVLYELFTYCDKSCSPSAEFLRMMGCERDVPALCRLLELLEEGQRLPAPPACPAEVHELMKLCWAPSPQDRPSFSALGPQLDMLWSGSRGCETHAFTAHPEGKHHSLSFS
In short: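 Human JAK3 (0.78 ng) with 0.2 μg/μL Poly(E4Y1) and 4 μM ATP in 40 mM Tris pH 7.5, 20 mM MgCl2, 0.1 mg/ml BSA, 50 μM DTT, 1% DMSO; 60 min at 25 °C. ADP formed read by ADP-Glo luminescence. 10-dose 3-fold series from 10 μM; IC50 by three-parameter logistic fit.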

COc1cc2c(cc1Nc1ncc(Cl)c(-n3cc(F)c4ccccc43)n1)CN(C)CC2 [Example 11, N-(5-Chloro-4-(3-fluoro-1H-indol-1-yl)pyrimidin-2-yl)-6-methoxy-2-methyl-1,2,3,4-tetrahydroisoquinolin-7-amine]
maximal fold induction ([1]; Homo sapiens, T-cell): < 2
IC50 [2]: ≤ 100 nM

COc1cc2c(cc1Nc1ncc(Cl)c(N3CCc4ccccc43)n1)CN(CCO)CC2 [Example 27]
maximal fold induction ([1]; Homo sapiens, T-cell): > 2
EC50 ([1]; Homo sapiens, T-cell, IL-2 response, calculated with GraphPad Prism): > 1000 nM
EC2x (nM) ([1]; concentration of compound that gives 200% IL-2 response (2 folds) over DMSO control): + (“+”, for greater than 1 μM)
IC50 [2]: ≤ 100 nM

COc1ccc2c(c1)C(C(=O)O)CN2c1nc(Nc2cc3c(cc2OC)CCN(C)C3)ncc1Cl (centres unmarked) [Example 106, 1-(5-Chloro-2-((6-methoxy-2-methyl-1,2,3,4-tetrahydroisoquinolin-7-yl)amino)pyrimidin-4-yl)-5-methoxyindoline-3-carboxylic acid]
IC50 [2]: ≤ 100 nM
IC50 [3]: ≤ 100 nM
JAKs/HPK1 IC50 Ratio, B* [3]: 11

CC(C)Oc1cc2c(cc1Nc1ncc(Cl)c(N3CC(C(=O)O)c4ccccc43)n1)CN(C)CC2 (centres unmarked) [Example 111, 1-(5-Chloro-2-((6-isopropoxy-2-methyl-1,2,3,4-tetrahydroisoquinolin-7-yl)amino)pyrimidin-4-yl)indoline-3-carboxylic acid]
IC50 [2]: ≤ 100 nM
IC50 [3]: > 1000 nM
JAKs/HPK1 IC50 Ratio, B* [3]: >236

COC(=O)c1cn(-c2nc(Nc3cc4c(cc3OC)CCN(C)C4)ncc2Cl)c2ccccc12 [Example 114]
IC50 [2]: ≤ 100 nM
IC50 [3]: > 1000 nM
JAKs/HPK1 IC50 Ratio, B* [3]: >118

COc1cc2c(cc1Nc1ncc(Cl)c(N3CC(C)(C(=O)O)c4ccccc43)n1)CN(C)CC2 (centres unmarked) [Example 117]
IC50 [2]: ≤ 100 nM
IC50 [3]: ≤ 100 nM
JAKs/HPK1 IC50 Ratio, B* [3]: 5

COc1cc2c(cc1Nc1ncc(Cl)c(N3CC(CO)(C(=O)O)c4ccccc43)n1)CN(C)CC2 (centres unmarked) [Example 124]
IC50 [2]: ≤ 100 nM
IC50 [3]: ≤ 100 nM
JAKs/HPK1 IC50 Ratio, B* [3]: 20

COc1cc2c(cc1Nc1ncc(Cl)c(N3CC(C)(C(=O)O)c4ccccc43)n1)CNCC2 (centres unmarked) [Example 127, 1-(5-Chloro-2-((6-methoxy-1,2,3,4-tetrahydroisoquinolin-7-yl)amino)pyrimidin-4-yl)-3-methylindoline-3-carboxylic acid]
IC50 [2]: ≤ 100 nM
IC50 [3]: ≤ 100 nM
JAKs/HPK1 IC50 Ratio, B* [3]: 4

CCC(CC)COC(=O)Cc1cn(-c2nc(Nc3cc4c(cc3OC)CCN(C)C4)ncc2Cl)c2ccccc12 [Example 131, 2-Ethylbutyl 2-(1-(5-chloro-2-((6-methoxy-2-methyl-1,2,3,4-tetrahydroisoquinolin-7-yl)amino)pyrimidin-4-yl)-1H-indol-3-yl)acetate]
IC50 [2]: 100 to 500 nM
IC50 [3]: > 1000 nM
JAKs/HPK1 IC50 Ratio, B* [3]: >82

CCOC(=O)Cc1cn(-c2nc(Nc3cc4c(cc3OC)CCN(C)C4)ncc2Cl)c2ccccc12 [Example 132]
IC50 [2]: ≤ 100 nM
IC50 [3]: > 1000 nM
JAKs/HPK1 IC50 Ratio, B* [3]: >426

COc1cc2c(cc1Nc1ncc(Cl)c(-n3cc(C4(C(=O)O)CC4)c4ccccc43)n1)CN(C)CC2 [Example 143]
IC50 [2]: ≤ 100 nM
IC50 [3]: > 1000 nM
JAKs/HPK1 IC50 Ratio, B* [3]: 433

COc1cc2c(cc1Nc1ncc(Cl)c(-n3cc(C(C(=O)O)C(F)(F)F)c4ccccc43)n1)CN(C)CC2 (centres unmarked) [Example 144]
IC50 [2]: ≤ 100 nM
IC50 [3]: > 1000 nM
JAKs/HPK1 IC50 Ratio, B* [3]: 250

COc1nc2c(cc1Nc1ncc(Cl)c(N3CC(C)(CC(=O)O)c4ccccc43)n1)CN(C)CC2 (centres unmarked) [Example 155]
IC50 [2]: ≤ 100 nM
IC50 [3]: > 1000 nM
JAKs/HPK1 IC50 Ratio, B* [3]: >111

COc1cc2c(cc1Nc1ncc3cc(C(=O)O)n(-c4ccccc4)c3n1)CN(C)CC2 [Example 165, 2-((6-Methoxy-2-methyl-1,2,3,4-tetrahydroisoquinolin-7-yl)amino)-7-phenyl-7H-pyrrolo[2,3-d]pyrimidine-6-carboxylic acid]
IC50 [2]: ≤ 100 nM
IC50 [3]: > 1000 nM
JAKs/HPK1 IC50 Ratio, B* [3]: 421

COc1cc2c(cc1Nc1ncc3c(n1)n(-c1ccccc1)c(=O)n3C)CN(C)CC2 [Example 166, 2-((6-Methoxy-2-methyl-1,2,3,4-tetrahydroisoquinolin-7-yl)amino)-7-methyl-9-phenyl-7,9-dihydro-8H-purin-8-one]
IC50 [2]: 100 to 500 nM
IC50 [3]: > 1000 nM

COc1cc2c(cc1Nc1ncc(Cl)c(N3CC(C(=O)O)C4(CCOCC4)C3)n1)CN(C)CC2 (centres unmarked) [Example 168]
IC50 [2]: ≤ 100 nM
IC50 [3]: > 1000 nM
JAKs/HPK1 IC50 Ratio, B* [3]: 737

COc1cc2c(cc1Nc1ncc(Cl)c(N3CCC4(COC4)C3)n1)CN(C)CC2 [Example 170, N-(5-chloro-4-(2-oxa-6-azaspiro[3.4]octan-6-yl)pyrimidin-2-yl)-6-methoxy-2-methyl-1,2,3,4-tetrahydroisoquinolin-7-amine]
IC50 [2]: 100 to 500 nM
IC50 [3]: > 1000 nM
JAKs/HPK1 IC50 Ratio, B* [3]: 77

COc1cc2c(cc1Nc1ncc3ccc(=O)n(-c4ccccc4)c3n1)CN(C)CC2 [Example 171, 2-((6-Methoxy-2-methyl-1,2,3,4-tetrahydroisoquinolin-7-yl)amino)-8-phenylpyrido[2,3-d]pyrimidin-7(8H)-one]
IC50 [2]: ≤ 100 nM
IC50 [3]: > 1000 nM
JAKs/HPK1 IC50 Ratio, B* [3]: 121
